The values below are quoted from earlier work in publication PMC13517605, “In Vitro Three-Dimensional Human Liver Model for Drug-Induced Liver and Bile Duct Injury Prediction” (Toxics, 2026).

Usually Cmax stands for the highest concentration seen after dosing.

For the data set the following is noted: maximum plasma concentration in humans.

With `[H]/N=C(/N)N[C@H]1[C@H](O)[C@@H](O)[C@H](O[C@@H]2O[C@@H](C)[C@](O)(C=O)[C@H]2O[C@@H]2O[C@@H](CO)[C@H](O)[C@@H](O)[C@@H]2NC)[C@@H](N/C(N)=N\[H])[C@@H]1O` [Streptomycin, streptomycin], the Cmax is 52.3 µM.
